# Results published in patent US4101676A, “Diphenylpropylamines to treat depression” (Beecham Group Limited, priority 1973, dated 1978).
# Counter-ions that a name gives are not always drawn.
# Legend:
# reserpine hypothermia [1] = assay: Prevention of Reserpine Hypothermia; assay type: in vivo, mice (Carworth Europe male); conditions: for Δ^6 / Δ^24: mice, oral; for Δ^6: cumulative temperature difference from controls at 6 hours; for Δ^24: cumulative temperature difference from controls at 24 hours; for Reserpine Prevention Δ^6: 6 hours; for Reserpine Prevention Δ^24: 24 hours
# Description: The method of Spencer [Antidepressant Drugs, 194 (1967) ] was used. Groups of ten mice are given oral doses of test compound 24 18 and 2 hours before an intravenous injection of reserpine base (Serpasil). Oral temperatures of the mice are taken immediately before administration of reserpine and then 2 4 6 and 24 hours afterwards.
# Mean temperatures of groups given test compounds are compared with reserpinised controls using a Students t test. Compounds causing a significant difference at the level P < 0.001 are considered active. In order to quantify anti-reserpine activity cumulative temperature differences from controls at 6 hours and 24 hours (Δ^6 and Δ^24 ) are calculated.
# (§1) Carworth Europe male mice are used for all experiments apart from that using the cat nictitating membrane and test compounds are administered orally as solutions in distilled water. Compounds for intravenous administration are dissolved in 0.9% saline apart from Reserpine which is dissolved in dilute acetic acid buffered to pH5. Unless otherwise stated, the dosing interval is one hour.
# (§2) The Reserpine Prevention, Reserpine Reversal and Noradrenaline Uptake Inhibition tests were carried out as described in the previous Example. The Mydriasis tests was also as described in the previous Example but using 20 mg/kg doses of each compound after which a curve was plotted of percentage increase in pupil diameter vertus time and the percentage increase was integrated with respect to time for 0-120 minutes after dosing and the result expressed as a percentage.
# reserpine hypothermia [2] = assay: Reversal of Reserpine Hypothermia; assay type: in vivo, mice (Carworth Europe male); conditions: for Reserpine Reversal Δ^6 / Δ^6: 6 hours; for Reserpine Reversal Δ^24 / Δ^24: 24 hours; for Δ^6 / Δ^24: mice, subcutaneous
# Description: Seventeen hours later the oral temperatures of the mice are taken and various doses of test compound or vehicle given subcutaneously. Temperatures are taken 1, 2, 4 6 and 24 hours later and the results are analysed as in Test 1 (The subcutaneous route is used for convenience as the very depressed reserpinised mice cannot be reliably dosed orally).
# as §1, §2
# Noradrenaline uptake = assay: Inhibition of Noradrenaline Uptake in vitro (brain synaptosomes); assay type: biochemical, male Wistar rats
# Description: (§3) Synaptosomes are isolated from the brains of male Wistar rats (150-170g.) and monamine uptake determined by the method of Snyder and Coyle (1968) [Synder S. H. and Coyle J. T. J. Pharmac. exp. Ther. 165 (1968) 78-86]. Uptake was determined over a ten minute period instead of the normal five minutes.
# as §2
# [3] = tested on: pupil diameter (mydriasis); assay: Mydriasis integral 0-120 minutes; assay type: in vivo, mice; conditions: mice, 20 mg/kg, 0-120 minutes
# Description: Groups of five mice are pre-selected for uniformity of pupil diameter using a binocular microscope with a calibrated eye-piece. Pupil sizes are measured at various intervals after an intraperitoneal injection of test compound and at the peak time a curve plotted of percentage increase in pupil diameter versus log dose. From this the dose causing a 200% increase in pupil size (this lies on the linear part of the curve) is found
# as §1, §2
# [4] = tested on: pupil diameter (mydriasis, anticholinergic side effect); assay: Mydriatic Response in Mice (dose causing 200% increase in pupil size); assay type: in vivo
# Description: Groups of five mice are pre-selected for uniformity of pupil diameter using a binocular microscope with a calibrated eye-piece. Pupil sizes are measured at various intervals after an intraperitoneal injection of test compound and at the peak time a curve plotted of percentage increase in pupil diameter versus log dose. […] Carworth Europe male mice are used for all experiments apart from that using the cat nictitating membrane and test compounds are administered orally as solutions in distilled water. […] Unless otherwise stated, the dosing interval is one hour.
# [5] = molecular target: T1, Guinea Pig Ileum (Cavia porcellus); assay: pA2 Determination on Guinea Pig Ileum (antagonism to Acetylcholine); conditions: in vitro, read-out: pA2 on Iillium (converted)
# T1 construct: from tissue; host or cells: guinea pig ileum
# T1 sequence (H0W1Z3 1-590): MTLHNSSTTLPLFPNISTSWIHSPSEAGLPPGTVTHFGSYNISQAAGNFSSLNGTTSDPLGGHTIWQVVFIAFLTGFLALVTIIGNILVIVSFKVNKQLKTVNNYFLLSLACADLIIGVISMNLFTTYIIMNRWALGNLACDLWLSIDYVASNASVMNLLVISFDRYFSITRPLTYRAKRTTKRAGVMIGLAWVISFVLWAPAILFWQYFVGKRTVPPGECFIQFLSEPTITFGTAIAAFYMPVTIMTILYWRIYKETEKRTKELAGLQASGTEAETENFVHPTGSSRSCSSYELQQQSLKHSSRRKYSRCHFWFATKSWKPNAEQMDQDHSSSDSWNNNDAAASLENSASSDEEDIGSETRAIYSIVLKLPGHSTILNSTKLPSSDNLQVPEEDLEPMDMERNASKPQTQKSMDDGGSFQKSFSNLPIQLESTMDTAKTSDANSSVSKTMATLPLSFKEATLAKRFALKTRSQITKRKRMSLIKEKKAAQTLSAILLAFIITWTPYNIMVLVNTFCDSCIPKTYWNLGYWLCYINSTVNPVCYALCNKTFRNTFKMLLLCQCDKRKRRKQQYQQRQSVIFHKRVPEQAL
# Excerpt: It is thus a means of expressing anticholinergic activity which is independent of the dose of Acetylcholine and the piece of tissue used. The method used is similar to that of Schild, [Brit. J. Pharmacol. 14 (1959) 48] the tissue being bathed in Tyrode solution and a dose response curved for Acetylcholine being obtained.
# [6] = tested on: 5-Hydroxytryptamine uptake; assay: Inhibition of 5-Hydroxytryptamine Uptake in vitro (brain synaptosomes); assay type: biochemical, male Wistar rats
# Description: as §3
# [7] = Pharmacology 2, dose 10 (unit not given)
# [8] = Pharmacology 2, dose 20 (unit not given)
# [9] = Pharmacology 2, dose 40 (unit not given)
# [10] = mice, intraperitoneal, at peak time
compound,measurement,setting,value
"CN(C)CC(O)C(c1ccccc1)c1cccc(Cl)c1 (stereo not drawn) [CH3 CH3 H Cl H HCl, 3-Dimethylamino-1-m-chlorophenyl-1-phenyl-propan-2-ol]",Δ^6,reserpine hypothermia [1]; 20 mg/kg,10 °C
same,Δ^24,reserpine hypothermia [1]; 20 mg/kg,17 °C
"CN(C)CC(O)C(c1ccccc1)c1ccccc1 (racemic) [Compound B, (+)-3-Dimethylamino-1,1-diphenyl-propan-2-ol]",Reserpine Prevention Δ^6,reserpine hypothermia [1]; [7],12 °C
same,Reserpine Prevention Δ^24,reserpine hypothermia [1]; [7],15 °C
same,Reserpine Prevention Δ^6,reserpine hypothermia [1]; [8],16 °C
same,Reserpine Prevention Δ^24,reserpine hypothermia [1]; [8],23 °C
same,Reserpine Prevention Δ^6,reserpine hypothermia [1]; [9],16 °C
same,Reserpine Prevention Δ^24,reserpine hypothermia [1]; [9],25 °C
same,effects on the Reserpine Prevention tests,reserpine hypothermia [1]; comparison of the two isomers,roughly equal effects
same,Reserpine Reversal Δ^6,reserpine hypothermia [2]; [7],16 °C
same,Reserpine Reversal Δ^24,reserpine hypothermia [2]; [7],27 °C
same,Reserpine Reversal Δ^6,reserpine hypothermia [2]; [8],15 °C
same,Reserpine Reversal Δ^24,reserpine hypothermia [2]; [8],19 °C
same,Reserpine Reversal Δ^6,reserpine hypothermia [2]; [9],13 °C
same,Reserpine Reversal Δ^24,reserpine hypothermia [2]; [9],19 °C
same,activity on the Reserpine Reversal Test,"reserpine hypothermia [2]; low doses, (+)-isomer versus (-)-isomer",more active than the (-)-isomer on the Reserpine Reversal Test at low doses
same,Inhibition of Noradrenaline Uptake In Vitro %,Noradrenaline uptake; 10^-6 molar (Pharmacology 2),40%
same,Mydriasis Integral Percent 120 Mins.,[3],12600%
"CNCC(C)(O)C(c1ccccc1)c1ccccc1 (stereo not drawn) [CH3 H NHCH3, 3-(N-methylamino)-2-methyl-1,1-diphenyl-propan-2-ol]",Δ^6,reserpine hypothermia [1]; 30 mg/kg,7 °C
same,Δ^24,reserpine hypothermia [1]; 30 mg/kg,13 °C
"CN(C)CC(O)C(c1ccccc1)c1ccc(Cl)cc1 (stereo not drawn) [CH3 CH3 H H Cl, 3-Dimethylamino-1-p-chlorophenyl-1-phenyl-propan-2-ol]",Δ^6,reserpine hypothermia [1]; 30 mg/kg,13 °C
same,Δ^24,reserpine hypothermia [1]; 30 mg/kg,22 °C
same,Δ^6,reserpine hypothermia [2]; 30 mg/kg,9 °C
same,Δ^24,reserpine hypothermia [2]; 30 mg/kg,11 °C
same,Mydriasis-Dose to cause 200% effect,[4]; [10],40 mg/kg
same,Kb,[5],10 µM
"CC(=O)OC(CN(C)C)C(c1ccccc1)c1ccccc1 (stereo not drawn) [H COCH3 N(CH3)2, 2-Acetoxy-3-dimethylamino-1,1-diphenyl-propane]",Δ^6,reserpine hypothermia [1]; 20 mg/kg,> 10 °C
same,Δ^24,reserpine hypothermia [1]; 20 mg/kg,> 10 °C
"CN(C)CC(O)C(c1ccccc1)c1ccc(F)cc1 (stereo not drawn) [CH3 CH3 H H F, 3-Dimethylamino-1-p-fluorophenyl-1-phenyl-propan-2-ol]",Δ^6,reserpine hypothermia [1]; 20 mg/kg,11 °C
same,Δ^24,reserpine hypothermia [1]; 20 mg/kg,15 °C
same,Δ^6,reserpine hypothermia [2]; 25 mg/kg,17 °C
same,Δ^24,reserpine hypothermia [2]; 25 mg/kg,23 °C
same,Inhibition of Monoamine Uptake NA (%),Noradrenaline uptake; 10^-5 molar,80%
same,Inhibition of Monoamine Uptake NA (%),Noradrenaline uptake; 10^-6 molar (Table 4),59%
same,Inhibition of Monoamine Uptake 5HT (%),[6]; 10^-5 molar,85%
same,Inhibition of Monoamine Uptake 5HT (%),[6]; 10^-6 molar,60%
"CN(C)CCC=C1c2ccccc2CCc2ccccc21 [Amitriptyline hydrochloride, reference compound]",Δ^6,reserpine hypothermia [1]; 30 mg/kg,12 °C
same,Δ^24,reserpine hypothermia [1]; 30 mg/kg,22 °C
same,Mydriasis-Dose to cause 200% effect,"[4]; mouse, in vivo, ip",6 mg/kg
"CN(C)CC(O)C(c1ccccc1)c1ccccc1 (stereo not drawn) [CH3 CH3 H H H HBr, 3-Dimethylamino-1,1-diphenyl-propan-2-ol]",Δ^6,reserpine hypothermia [1]; 20 mg/kg,13 °C
same,Δ^24,reserpine hypothermia [1]; 20 mg/kg,19 °C
same,Δ^6,reserpine hypothermia [2]; 20 mg/kg,14 °C
same,Δ^24,reserpine hypothermia [2]; 20 mg/kg,22 °C
same,Mydriasis-Dose to cause 200% effect,[4]; [10],41 mg/kg
same,Kb,[5],10 µM
"CNCC(O)C(c1ccccc1)c1ccc(F)cc1 (stereo not drawn) [H CH3 H H F, 3-Methylamino-1-p-fluorophenyl-1-phenyl-propan-2-ol]",Δ^6,reserpine hypothermia [1]; 30 mg/kg,12 °C
same,Δ^24,reserpine hypothermia [1]; 30 mg/kg,21 °C
same,Mydriasis-Dose to cause 200% effect,[4]; [10],92 mg/kg
same,Kb,[5],100 µM
"CN(Cc1ccccc1)CC(C)(O)C(c1ccccc1)c1ccccc1 (stereo not drawn) [CH3 H N(CH3)CH2C6H5, 3-(N-Benzyl N-methylamino)-2-methyl-1,1-diphenyl-propan-2-ol]",Δ^6,reserpine hypothermia [1]; 100 mg/kg,6 °C
same,Δ^24,reserpine hypothermia [1]; 100 mg/kg,8 °C
"Cc1ccccc1C(c1ccccc1)C(O)CN(C)C (stereo not drawn) [CH3 CH3 CH3 H H HCl, 3-Dimethylamino-1-phenyl-1-o-tolyl-propan-2-ol]",Δ^6,reserpine hypothermia [1]; 30 mg/kg,11 °C
same,Δ^24,reserpine hypothermia [1]; 30 mg/kg,14 °C
"CNCC(O)C(c1ccccc1)c1ccc(C)cc1 (stereo not drawn) [CH3 H H H CH3 HCl, 3-N-methylamino-1-phenyl-1-p-tolyl-propan-2-ol]",Δ^6,reserpine hypothermia [1]; 100 mg/kg,6 °C
same,Δ^24,reserpine hypothermia [1]; 100 mg/kg,6 °C
"CN(C)CCCN1c2ccccc2CCc2ccccc21 [Imipramine HCl, reference compound]",Δ^6,reserpine hypothermia [1]; 30 mg/kg,10 °C
same,Δ^24,reserpine hypothermia [1]; 30 mg/kg,17 °C
same,Δ^6,reserpine hypothermia [2]; 10 mg/kg,18 °C
same,Δ^24,reserpine hypothermia [2]; 10 mg/kg,18 °C
same,Inhibition of Monoamine Uptake NA (%),Noradrenaline uptake; 10^-5 molar,85%
same,Inhibition of Monoamine Uptake NA (%),Noradrenaline uptake; 10^-6 molar (Table 4),56%
same,Inhibition of Monoamine Uptake 5HT (%),[6]; 10^-5 molar,90%
same,Inhibition of Monoamine Uptake 5HT (%),[6]; 10^-6 molar,55%
same,Mydriasis-Dose to cause 200% effect,[4]; [10],18 mg/kg
same,Kb,[5],0.001 µM
"CN(Cc1ccccc1)CC(O)C(c1ccccc1)c1ccccc1 (stereo not drawn) [CH2C6H5 CH3 H H H HCl, 3-(N-Benzyl-N-methylamino)-1,1-diphenyl-propan-2-ol]",Δ^6,reserpine hypothermia [1]; 30 mg/kg,10 °C
same,Δ^24,reserpine hypothermia [1]; 30 mg/kg,11 °C
"CNCC(O)C(c1ccccc1)c1ccccc1 (stereo not drawn) [CH3 H H H H HCl, 3-Methylamino-1,1-diphenyl-propan-2-ol]",Δ^6,reserpine hypothermia [1]; 20 mg/kg,> 10 °C
same,Δ^24,reserpine hypothermia [1]; 20 mg/kg,> 10 °C
same,Inhibition of Monoamine Uptake NA (%),Noradrenaline uptake; 10^-5 molar,85%
same,Inhibition of Monoamine Uptake NA (%),Noradrenaline uptake; 10^-6 molar (Table 4),65%
same,Mydriasis-Dose to cause 200% effect,[4]; [10],114 mg/kg
same,Kb,[5],10 µM
CCN(CC)CC(O)C(c1ccccc1)c1ccccc1 (stereo not drawn) [C2H5 C2H5 H H H HCl],Δ^6,reserpine hypothermia [1]; 30 mg/kg,11 °C
same,Δ^24,reserpine hypothermia [1]; 30 mg/kg,11 °C
"CN(Cc1ccccc1)CC(O)C(c1ccccc1)c1ccc(F)cc1 (stereo not drawn) [CH2C6H5 CH3 H H F, 3-(N-Benzyl,N-methylamino)-1-p-fluorophenyl-1-phenylpropan-2-ol]",Δ^6,reserpine hypothermia [1]; 30 mg/kg,9 °C
same,Δ^24,reserpine hypothermia [1]; 30 mg/kg,11 °C
"OC(CN1CCCCC1)C(c1ccccc1)c1ccccc1 (stereo not drawn) [H H piperidine, 3-N-Piperidino-1 1-diphenyl-propan-2-ol]",Δ^6,reserpine hypothermia [1]; 100 mg/kg,9 °C
same,Δ^24,reserpine hypothermia [1]; 100 mg/kg,10 °C
OC(CN1CCOCC1)C(c1ccccc1)c1ccccc1 (stereo not drawn) [H H morpholino],Δ^6,reserpine hypothermia [1]; 100 mg/kg,10 °C
same,Δ^24,reserpine hypothermia [1]; 100 mg/kg,10 °C
